The text below walks through data of US5679671A, “Amino acid derivative” (Eisai Co., Ltd., priority 1993, dated 1997).

The target in one assay is T1, NEP (Rattus norvegicus, UniProt P07861).
T1 sequence (P07861 1-750): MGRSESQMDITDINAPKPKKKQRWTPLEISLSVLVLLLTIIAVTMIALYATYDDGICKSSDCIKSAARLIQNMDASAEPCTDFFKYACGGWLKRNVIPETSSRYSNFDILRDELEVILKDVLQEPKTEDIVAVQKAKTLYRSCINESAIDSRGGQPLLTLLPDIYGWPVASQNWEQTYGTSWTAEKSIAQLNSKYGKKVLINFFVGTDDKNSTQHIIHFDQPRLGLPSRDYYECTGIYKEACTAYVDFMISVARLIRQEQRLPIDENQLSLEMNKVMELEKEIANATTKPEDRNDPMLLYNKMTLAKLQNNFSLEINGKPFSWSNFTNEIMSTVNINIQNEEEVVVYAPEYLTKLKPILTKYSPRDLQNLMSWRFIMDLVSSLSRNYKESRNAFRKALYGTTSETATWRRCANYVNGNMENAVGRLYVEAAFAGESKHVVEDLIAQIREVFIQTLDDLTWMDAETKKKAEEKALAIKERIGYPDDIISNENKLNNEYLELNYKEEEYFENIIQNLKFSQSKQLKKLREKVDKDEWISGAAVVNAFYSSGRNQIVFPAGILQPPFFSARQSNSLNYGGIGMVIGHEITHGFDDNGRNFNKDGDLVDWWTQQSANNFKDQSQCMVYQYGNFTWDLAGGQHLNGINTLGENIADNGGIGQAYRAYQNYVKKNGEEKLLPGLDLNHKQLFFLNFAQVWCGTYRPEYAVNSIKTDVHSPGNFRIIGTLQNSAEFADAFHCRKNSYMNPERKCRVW
Description: NEP inhibition activity (Experiment D-1). Format: biochemical. More on the design: membrane fraction prepared from rat renal cortex; from tissue; host or cells: rat renal cortex, membrane fraction (method of Booth and Kenny). The following applies: rat renal cortex membrane fraction. The protocol:
As a source of the enzyme NEP, a membrane fraction prepared from rat renal cortex in accordance with the method of Booth and Kenny (A Rapid Method for the Purification of Microvilli from Rabbit Kidney., Andrew G. Booth and A. John Kenny, Biochem. j., 1974, 142, 575-581.) was employed. The NEP activity was determined in accordance with the method of Orlowsky and Wilk (Purification and Specificity of a Membrane-Bound Metalloendpeptidase from Bovine Pituitaries., Marian Orlowsky and Shrwin Wilk, Biochemistry, 1981, 20, 4942-4950.). Now the procedure will be briefly described.
As a substrate, benzoyl-glycine-arginine-arginine-2-naphthylamide benzoyl-Gly-Arg-Arg-2-naphthylamide (Nova Biochem, Switzerland)) was used. In the presence of an NEP enzyme preparation and excessive leucine aminopeptidase (sigma chemical Co., U.S.A.), the liberated naphthylamine was made to undergo color development with first garnet (Sigma chemical Co., U.S.A.), followed by the measurement of the absorbance at a wavelength of 540 nm.
(§1) To determine the NEP inhibition activity and the ACE inhibition activity, the inhibitor was added to the assay systems of both enzyme activities as described above in such a manner as to give the final concentrations of 1, 3, 10, 30, 100, 300 and 1000 nM and inhibition curves were prepared. Then the concentration at which 50% inhibition was achieved was taken as IC50.

Another assay addresses T2, ACE (Rattus norvegicus, UniProt P47820).
T2 construct: membrane fraction prepared from rat lung; from tissue; host or cells: rat lung, membrane fraction (method of Wu-Wong et al.)
T2 sequence (P47820 36-1313): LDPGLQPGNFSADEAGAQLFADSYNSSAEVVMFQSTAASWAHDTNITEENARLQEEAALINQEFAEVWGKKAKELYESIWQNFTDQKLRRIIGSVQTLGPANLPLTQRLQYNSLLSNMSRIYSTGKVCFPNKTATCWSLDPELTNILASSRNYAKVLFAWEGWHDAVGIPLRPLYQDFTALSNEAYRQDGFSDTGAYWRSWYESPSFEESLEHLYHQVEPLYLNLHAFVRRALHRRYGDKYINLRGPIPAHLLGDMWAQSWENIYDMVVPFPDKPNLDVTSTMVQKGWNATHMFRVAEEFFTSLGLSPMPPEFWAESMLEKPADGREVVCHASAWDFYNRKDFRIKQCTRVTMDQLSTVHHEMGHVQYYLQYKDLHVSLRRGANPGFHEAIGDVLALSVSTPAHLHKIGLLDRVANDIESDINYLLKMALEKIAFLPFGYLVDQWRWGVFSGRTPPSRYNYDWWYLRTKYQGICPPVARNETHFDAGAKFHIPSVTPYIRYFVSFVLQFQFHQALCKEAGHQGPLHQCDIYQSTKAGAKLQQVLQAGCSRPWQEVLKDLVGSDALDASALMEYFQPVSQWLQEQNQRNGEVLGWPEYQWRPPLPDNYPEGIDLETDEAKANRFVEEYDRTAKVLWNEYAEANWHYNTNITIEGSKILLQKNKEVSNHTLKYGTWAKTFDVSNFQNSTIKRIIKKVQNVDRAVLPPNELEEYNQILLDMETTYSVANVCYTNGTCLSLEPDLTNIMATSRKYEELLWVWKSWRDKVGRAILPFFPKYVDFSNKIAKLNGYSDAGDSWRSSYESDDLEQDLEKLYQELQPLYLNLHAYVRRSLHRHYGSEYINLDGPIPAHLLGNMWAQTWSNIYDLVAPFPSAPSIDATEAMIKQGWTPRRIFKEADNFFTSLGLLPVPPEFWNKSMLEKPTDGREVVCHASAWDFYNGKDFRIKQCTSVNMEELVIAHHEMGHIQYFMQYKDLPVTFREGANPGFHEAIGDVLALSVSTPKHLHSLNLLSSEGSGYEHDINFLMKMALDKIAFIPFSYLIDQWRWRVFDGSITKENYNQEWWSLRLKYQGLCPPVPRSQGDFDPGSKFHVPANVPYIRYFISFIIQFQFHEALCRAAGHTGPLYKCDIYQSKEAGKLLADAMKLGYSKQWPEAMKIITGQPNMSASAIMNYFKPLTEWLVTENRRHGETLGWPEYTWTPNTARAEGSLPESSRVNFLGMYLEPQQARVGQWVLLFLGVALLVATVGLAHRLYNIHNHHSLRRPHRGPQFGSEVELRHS
Description: ACE inhibition activity (Experiment D-1). The settings on record: rat lung membrane fraction, pH 8.3. Format: biochemical. The method, then: As a source of the enzyme ACE, a membrane fraction prepared from rat lung in accordance with the method of Wu-Wong et al. (Characterization of Endthelin Converting Enzyme in Rat Lung., Junshyum R. Wu-Wong, Gerald, P. Budzik, Edward M. Devine and Terry J. Opgenorth, Biochem. Biophys. Res. Commun., 1990, 171, 1291-1296.) was used. The ACE activity was determined with the use of a modification (modified to a borate buffer, pH 8.3) of the method of Cushman and Cheung (Spectrophotometric Assay and Properties of the Angiotensin-Converting Enzyme of Rabbit Lung., Cushman D. W. and Cheung H. S., 1971, 20, 1637-1648.). Now the procedure will be briefly described.
In the presence of ACE, the hippurate liberated from hippuryl-histidine-leucine (Hippuryl-His-Leu (Peptide Institute Inc., Japan)) was extracted with ethyl acetate and then the absorbance was measured at a wavelength of 228 nm.
as §1

In assay [1] the test system is SHR. Description: Hypotensive effect on SHR, i.v. (Experiment D-2). It is filed as in vivo, Spontaneously hypertensive rats. The method, then:
Spontaneously hypertensive rats (SHR) aged 15 to 20 weeks were anesthetized by intraperitoneally administering thiopental sodium (50 mg/kg). The depth of anesthesia was maintained by optionally effecting supplemental anesthesia (5 mg/kg, i.v.). Catheters were inserted into the left common carotid artery and the vein respectively for the measurement of blood pressure and for the administration of a medicament. The cardiac rate was counted by using blood pressure as a trigger.
When the blood pressure became stable after the completion of the operation, the comparative compound or the compound of Example 9 was intravenously administered in doses of 0.1, 0.3 and 1.0 mg/kg and changes in blood pressure and cardiac rate were measured. Following the administration, the measurement was effected for 10 minutes in the cases of 0.1 and 0.3 mg/kg or for 30 minutes in the case of 1.0 mg/kg.

In assay [2] the test system is SHR. Description: Hypotensive effect on SHR, i.v. (Experiment C-5). Format: in vivo, rat (SHR). The protocol:
SHRs aged 15 to 20 weeks were anesthetized by intraperitoneally administering thiopental sodium (50 mg/kg). The depth of anesthesia was maintained by optionally effecting supplemental anesthesia (5 mg/kg, i.v.). Catheters were inserted into the left common carotid artery and the vein respectively for the measurement of blood pressure and for the administration of a medicament. The cardiac rate was counted by using blood pressure as a trigger.
When the blood pressure became stable after the completion of the operation, the comparative compound was intravenously administered in 0.1, 0.3 and 1.0 mg/kg and changes in blood pressure and cardiac rate were measured. Following the administration, the measurement was effected for 10 minutes in the cases of 0.1 and 0.3 mg/kg or for 30 minutes in the case of 1.0 mg/kg. The invention compound was intravenously administered in 0.03, 0.1 and 0.3 mg/kg and the measurement was effected for 10 minutes after the administration in the cases of 0.03 and 0.1 mg/kg or for 30 minutes after the administration in the case of 0.3 mg/kg.

The test system of assay [3] is SHR. Description: Hypotensive effect on SHR through intravenous administration (separate experiment). Format: in vivo. The following applies: Rattus norvegicus, read-out: dose to decrease the blood pressure by 10%. The text has this:
In addition to the above-mentioned Pharmacological Experiment Examples, an experiment was separately effected with the use of SHR for examining hypotensive effects through intravenous administration. As the result, in the comparison of the conventionally known double inhibitors (1) [S-(R*,R*)]-2,3,4,5-tetrahydro-3-[(2-mercapto-[…])amino]-2-oxo-1H-benzazepine-1-acetic acid and (2) [S-(R*,R*)]-2,3,4,5-tetrahydro-3-[(2-mercapto-1-oxo-4-methylpentyl)amino]- 2-oxo-1H-benzazepine-1-acetic acid with the compounds of the present invention, Example C-8 and Example C-10, the inhibitors (1) and (2) should be administered each in a dose of 1.0 mg/kg to decrease the blood pressure by 10%, whereas the administration of 0.03 to 0.1 mg/kg of the compound of Example C-8 and the administration of 0.1 to 0.3 mg/kg of the compound of Example C-10 each achieved the same effect.

[4] abbreviates: within 30 minutes after i.v. administration.

The structures appear in SMILES notation.

As for `COc1ccc(CC(S)C(=O)N[C@H]2Cc3ccccc3[C@H]3SC[C@H](C(=O)O)N3C2=O)cc1` (stereo partly drawn) [Comp. cpd.*^1], the IC50 (commonly the concentration at which inhibition is half-maximal) was 14 nM against NEP and 11 nM at ACE.
As to `CS(=O)(=O)Nc1ccc2c(c1)[C@H]1CCC[C@@H](C(=O)O)N1C(=O)[C@@H](NC(=O)[C@@H](S)Cc1ccccc1)C2` [Example D-5, [4S-[4α,7α(R*),12bβ]]-11-methylsulfonylamino7-[[(S)-2-mercapto-3-phenyl-1-oxopropyl)amino-6-oxo-1,2,3,4,6,7,8,12b-octahydropyrido-[2,1-a][2]benzazepine-4-carboxylic acid], the IC50 against NEP was determined as 33 nM; against ACE, 17 nM.
At NEP, `COc1ccc(C[C@H](S)C(=O)N[C@H]2Cc3ccc(NS(C)(=O)=O)cc3[C@H]3CCC[C@@H](C(=O)O)N3C2=O)cc1` [Example D-6, [4S-[4α,7α(R*),12bβ]]-11-methylsulfonylamino-7-[[(S)-2-mercapto-3-(4-methoxyphenyl)-1-oxopropyl]amino-6-oxo-1,2,3,4,6,7,8,12b-octahydropyrido-[2,1-a][2]benzazepine-4-carboxylic acid] gave an IC50 of 38 nM. Also, the “decrease in blood pressure / hypotensive effect” value in the assay on SHR [1] (1.0 mg/kg i.v.) was 25%. In the assay on SHR [1] (SHR, i.v.), the cardiac rate result is “tended to gradually decrease” and the “hypotensive effect on SHR relative to the comparative compound” value is recorded as “about three times that of the comparative compound”. Besides, half-maximal inhibition against ACE (IC50) required 12 nM.
On to `O=C(N[C@H]1Cc2ccccc2[C@H]2CCC[C@@H](C(=O)O)N2C1=O)[C@@H](S)Cc1ccccc1` [comparative compound, reference compound], for which the cardiac rate result in the assay with SHR [2] (SHR, i.v.) was “tended to gradually decrease”; with SHR [1] (SHR, i.v.), “tended to gradually decrease”. For the same molecule, the “return of blood pressure” value with SHR [2] (setting [4]) and in the assay with SHR [1] (setting [4]) was “did not return within 30 minutes” in each case.
In the case of `O=C(O)CN1C(=O)[C@@H](NC(=O)[C@@H](S)Cc2ccccc2)CCc2ccccc21` [inhibitor (1)], in the assay with SHR [3], the ED (10% decrease in blood pressure) amounted to 1 mg/kg.
Same read-out and setting: then `CC(C)C[C@H](S)C(=O)N[C@H]1CCc2ccccc2N(CC(=O)O)C1=O` [inhibitor (2), [S-(R*,R*)]-2,3,4,5-tetrahydro-3-[(2-mercapto-1-oxo-4-methylpentyl)amino]-2-oxo-1H-benzazepine-1-acetic acid], with 1 mg/kg.
